From patent US4552701A, “Glycopeptide antibiotics and process of preparation” (Eli Lilly and Company, priority 1984, dated 1985)
Values after ≈ are worked out from the molar mass of the structure shown.

Legend:
[1] = tested on: Staphylococcus epidermidis EP11; type: cell-based; conditions: agar dilution
[2] = tested on: Staphylococcus epidermidis 222; type: cell-based; conditions: agar dilution
[3] = tested on: Streptococcus pyogenes C203; type: cell-based; conditions: agar dilution
[4] = tested on: Streptococcus pneumoniae Park 1; type: cell-based; conditions: agar dilution
[5] = tested on: Streptococcus faecium ATCC 9790; type: cell-based; conditions: agar dilution
[6] = tested on: Streptococcus sp. group D 2041; type: cell-based; conditions: agar dilution
[7] = tested on: Haemophilus influenzae C.L.; type: cell-based; conditions: agar dilution
[8] = tested on: Haemophilus influenzae 76; type: cell-based; conditions: agar dilution
Escherichia coli N10 = type: cell-based; conditions: agar dilution
Escherichia coli EC14 = type: cell-based; conditions: agar dilution
Escherichia coli TEM = type: cell-based; conditions: agar dilution
Klebsiella pneumonia X26 = type: cell-based; conditions: agar dilution
Klebsiella pneumonia X68 = type: cell-based; conditions: agar dilution
Klebsiella pneumonia KAE = type: cell-based; conditions: agar dilution
[9] = tested on: Clostridium difficile 2994; type: cell-based; conditions: agar dilution, read after 24 hrs
Description: (§1) | read after 24hrs. incubation.

[10] = tested on: Clostridium septicum 1128; type: cell-based; conditions: agar dilution, read after 24 hrs
Description: as §1

[11] = tested on: Clostridium perfringens 81; type: cell-based; conditions: agar dilution, read after 24 hrs
[12] = tested on: Eubacterium aerofaciens 1235; type: cell-based; conditions: agar dilution, read after 24 hrs
[13] = tested on: Peptococcus asaccharolyticus 1302; type: cell-based; conditions: agar dilution, read after 24 hrs
[14] = tested on: Peptostreptococcus anaerobius 1428; type: cell-based; conditions: agar dilution, read after 24 hrs
[15] = tested on: Peptostreptococcus intermedius 1264; type: cell-based; conditions: agar dilution, read after 24 hrs
[16] = tested on: Propionibacterium acnes 79; type: cell-based; conditions: agar dilution, read after 24 hrs
Bacteroides fragilis 111 = type: cell-based; conditions: agar dilution, read after 24 hrs
[17] = tested on: Bacteroides fragilis 1877; type: cell-based; conditions: agar dilution, read after 24 hrs
[18] = tested on: Bacteroides fragilis 1936B; type: cell-based; conditions: agar dilution, read after 24 hrs
[19] = tested on: Bacteroides thetaiotaomicron 1438; type: cell-based; conditions: agar dilution, read after 24 hrs
[20] = tested on: Bacteroides melaninogenicus 1856/28; type: cell-based; conditions: agar dilution, read after 24 hrs
[21] = tested on: Bacteroides melaninogenicus 2736; type: cell-based; conditions: agar dilution, read after 24 hrs
[22] = tested on: Bacteroides vulgatis 1211; type: cell-based; conditions: agar dilution, read after 24 hrs
[23] = tested on: Bacteroides corrodens 1874; type: cell-based; conditions: agar dilution, read after 24 hrs
[24] = tested on: Fusobacterium symbiosum 1470; type: cell-based; conditions: agar dilution, read after 24 hrs
[25] = tested on: Fusobacterium necrophorum 6054A; type: cell-based; conditions: agar dilution, read after 24 hrs
Staphylococcus aureus = experiment: experimental bacterial infection in mice, ED50; type: in vivo; conditions: subcutaneous, two doses
Description: (§2) The formula 1 compounds have also shown in vivo antimicrobial activity against experimental bacterial infections. When two doses of test compound were administered to mice in experimental infections, the activity observed was measured as an ED50 value [effective dose in mg/kg to protect 50% of the test animals: see Warren Wick, et al., J. Bacteriol. 81, 233-235 (1961)].

Streptococcus pneumoniae = experiment: experimental bacterial infection in mice, ED50; type: in vivo; conditions: subcutaneous, two doses
Description: as §2

Streptococcus pyogenes = experiment: experimental bacterial infection in mice, ED50; type: in vivo; conditions: subcutaneous, two doses
Description: as §2

[26] = tested on: gram-positive microorganisms; experiment: in vitro antibacterial activity (general statement); type: cell-based; conditions: statement in words
[27] = tested on: Staphylococcus aureus NRRL B313; conditions: agar dilution
[28] = tested on: Staphylococcus aureus V41; conditions: agar dilution
[29] = tested on: Staphylococcus aureus X400; conditions: agar dilution
Peptococcus prevoti 1281 = conditions: agar dilution, read after 24 hrs

**Q.** `CN[C@H](CC(C)C)C(=O)N[C@H]1C(=O)N[C@@H](CC(N)=O)C(=O)N[C@H]2C(=O)N[C@H]3C(=O)N[C@H](C(=O)N[C@H](C(=O)O)c4cc(O)cc(O)c4-c4cc3ccc4O)[C@H](O)c3ccc(c(Cl)c3)Oc3cc2cc(c3O)Oc2ccc(cc2Cl)[C@H]1O` [Compound 10, aglucovancomycin] was tested. Which MIC [1] did it give?
**A.** The MIC was 2 µg/mL (≈ 1.75 µM).

**Q.** And the MIC [2]?
**A.** Its MIC is 1 µg/mL (≈ 0.874 µM).

**Q.** What about the MIC [3] of the same compound?
**A.** Its MIC is 0.5 µg/mL (≈ 0.437 µM).

**Q.** And the MIC [4]?
**A.** Its MIC is 0.5 µg/mL (≈ 0.437 µM).

**Q.** What about the MIC [5] of the same compound?
**A.** The MIC was 1 µg/mL (≈ 0.874 µM).

**Q.** What about the MIC [6] of the same compound?
**A.** Its MIC is 64 µg/mL (≈ 55.9 µM).

**Q.** And the MIC [7]?
**A.** The MIC was 64 µg/mL (≈ 55.9 µM).

**Q.** What about the MIC [8] of the same compound?
**A.** Its MIC is 64 µg/mL (≈ 55.9 µM).

**Q.** And the MIC (Escherichia coli N10)?
**A.** The MIC was > 128 µg/mL.

**Q.** What about the MIC (Escherichia coli EC14) of the same compound?
**A.** The MIC was > 128 µg/mL.

**Q.** And the MIC (Escherichia coli TEM)?
**A.** Its MIC is 64 µg/mL (≈ 55.9 µM).

**Q.** And the MIC (Klebsiella pneumonia X26)?
**A.** The MIC was > 128 µg/mL.

**Q.** What about the MIC (Klebsiella pneumonia X68) of the same compound?
**A.** The MIC was > 128 µg/mL.

**Q.** What about the MIC (Klebsiella pneumonia KAE) of the same compound?
**A.** Its MIC is > 128 µg/mL.

**Q.** And the MIC [9]?
**A.** The MIC was 8 µg/mL (≈ 6.99 µM).

**Q.** And the MIC [10]?
**A.** The MIC was 8 µg/mL (≈ 6.99 µM).

**Q.** What about the MIC [11] of the same compound?
**A.** The MIC was 8 µg/mL (≈ 6.99 µM).

**Q.** What about the MIC [12] of the same compound?
**A.** The MIC was 128 µg/mL (≈ 112 µM).

**Q.** What about the MIC [13] of the same compound?
**A.** The MIC was 64 µg/mL (≈ 55.9 µM).

**Q.** And the MIC [14]?
**A.** Its MIC is 32 µg/mL (≈ 28 µM).

**Q.** What about the MIC [15] of the same compound?
**A.** The MIC was > 128 µg/mL.

**Q.** What about the MIC [16] of the same compound?
**A.** Its MIC is 8 µg/mL (≈ 6.99 µM).

**Q.** And the MIC (Bacteroides fragilis 111)?
**A.** The MIC was > 128 µg/mL.

**Q.** What about the MIC [17] of the same compound?
**A.** The MIC was 128 µg/mL (≈ 112 µM).

**Q.** What about the MIC [18] of the same compound?
**A.** Its MIC is > 128 µg/mL.

**Q.** And the MIC [19]?
**A.** Its MIC is > 128 µg/mL.

**Q.** And the MIC [20]?
**A.** The MIC was > 128 µg/mL.

**Q.** And the MIC [21]?
**A.** Its MIC is 128 µg/mL (≈ 112 µM).

**Q.** And the MIC [22]?
**A.** The MIC was 128 µg/mL (≈ 112 µM).

**Q.** What about the MIC [23] of the same compound?
**A.** Its MIC is > 128 µg/mL.

**Q.** What about the MIC [24] of the same compound?
**A.** The MIC was 8 µg/mL (≈ 6.99 µM).

**Q.** And the MIC [25]?
**A.** The MIC was 2 µg/mL (≈ 1.75 µM).

**Q.** And the ED50 (Staphylococcus aureus)?
**A.** The ED50 was 8.75 mg/kg/2.

**Q.** And the ED50 (Streptococcus pneumoniae)?
**A.** The ED50 was 16.54 mg/kg/2.

**Q.** And the ED50 (Streptococcus pyogenes)?
**A.** Its ED50 is 22.3 mg/kg/2.

**Q.** And the antibacterial activity [26]?
**A.** The antibacterial activity was “good in vitro antibacterial activity”.

**Q.** What about the MIC [27] of the same compound?
**A.** Its MIC is 0.5 µg/mL (≈ 0.437 µM).

**Q.** And the MIC [28]?
**A.** Its MIC is 1 µg/mL (≈ 0.874 µM).

**Q.** What about the MIC [29] of the same compound?
**A.** Its MIC is 1 µg/mL (≈ 0.874 µM).

**Q.** What about the MIC (Peptococcus prevoti 1281) of the same compound?
**A.** The MIC was 8 µg/mL (≈ 6.99 µM).
